Consider one substance from patent publication US20080145313A1, “Compositions and Methods for the Treatment and Prevention of Neoplastic Disorders” (Genesis Research & Development Corporation Limited, priority 2006, published 2008).

One data set relates to A549 cells. As to the kind of experiment: Growth inhibition of siRNA-transfected A549 cells, SYBR Green I DNA content. Type of data set: cell-based, human. The note with it: 10 nM siRNA; DNA content 96 hours after transfection. In short, it runs like this:
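A549 cells reverse-transfected with 10 nM Stealth siRNAs via Lipofectamine RNAiMAX, seeded at 5×10^3 cells/cm^2 in RPMI 1640/10% FCS; non-specific siRNA control. DNA content read 96 h post-transfection by SYBR Green I fluorescence (ex 485/em 535 nm) after freeze-thaw and Triton X-100 lysis; mean of three wells.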

The next data set has as its system RRM1 mRNA. Kind of data set: RRM1 mRNA level by quantitative RT-PCR in A549 cells. In kind it is cell-based, human. The note with it: 0.01 nM siRNA; 24 h post-transfection. As to the method: RNA was purified from cells using Trizol® extraction as per the manufacturer's protocol (Invitrogen). cDNA was prepared by digesting approximately 200 ng purified RNA with DNAse I (Invitrogen) for 15 minutes at room temperature, followed by 15 minutes at 65° C. in the presence of 25 mM EDTA. 30 ng random primers were added and incubated for 10 minutes at room temperature, 1 minute on ice; Superscript III polymerase (Invitrogen) was added in presence of 5 nM DTT (Sigma, St Louis, Mo.) and 1 mM deoxyribonucleotides (Invitrogen), and the reaction incubated at 25° C. for 5 minutes, followed by an hour at 55° C. cDNA was diluted 1:3 in 10 mM Tris pH 7.0, and quantitative RT-PCR carried out on an ABI Prism 7900HT (Applied Biosciences, Inc., Foster City, Calif.) using FastStart TaqMan SYBRGreen (Roche, Basel, Switzerland) and specific primers at 360 nM for RRM1 and RRM2 and the housekeeping genes HPRT and Lamin. Primer sequence pairs used for RRM1, RRM2, HPRT and lamin are given in SEQ ID NO: 4881 and 4882; 4883 and 4884; 4885 and 4886; 4887 and 4888 respectively.

On to “SEQ ID NO: 4830: Stealth siRNA targeting RRM1 (chain 1 AAGATCTGCTTATTCAGTAACTGGG; chain 2 AAGAUCUGCUUAUUCAGUAACUGGG; Commercial Stealth siRNA duplex, modification pattern not given here; one strand in two spellings)”, for which, in the data set with A549 cells, the “Growth Inhibition in A549 cells” value is reported as “++ (inhibits by at least 75%)”. In addition, in the data set with RRM1 mRNA, the “RRM1 mRNA expression” value is “effectively silenced”.
